Measured values published in US10696971B2, “MrgprX2/MrgprB2 expressing cell based assay to detect pseudo-allergic drug reactions and to identify blockers to prevent the adverse reactions” (The Johns Hopkins University, priority 2014, dated 2020).

Tests used:
WT and MrgprB2^MUT mice = assay: Systemic anaphylaxis assay (body core temperature); format: in vivo, mouse; conditions: ciprofloxacin i.v. 1.5 mg in 125 μl saline after propranolol, much smaller drop in MrgprB2^MUT
Protocol: To minimize stress, animals were transported to the procedure area the day before injections. Adult male and female mice up to 8 months of age (25 to 35 grams) were given an intraperitoneal injection of 80 μg propranolol in saline (2 mg/ml) immediately after removal from their cages, and then placed back in their cages for 30 minutes before intravenous injections. The intravenous injections were performed on one mouse at a time. For each injection, a mouse was placed in a transport box and brought to a room with no other mice, to minimize stress from vocalizations during injection. The mouse was then placed in a restrainer, and the injection was performed within 4 minutes of restraint because it was observed that longer restraint times affected body core temperature independent from the injection. […] The injection was determined to be successful only when all of the criteria were met: blood appeared in the syringe after needle insertion, all tail veins were visible after injection, and the mouse bled slightly from the injection site after needle withdrawal. The injection site was swabbed until blood stopped flowing, the mouse was placed in a separate cage from its housing cage, one mouse per cage, and returned to the room it was brought from. […] Body core temperature was measured with a rectal thermometer.

LAD2 human mast cells = assay: LAD2 degranulation assay (β-hexosaminidase release), with MrgprX2 siRNA knockdown; format: cell-based; conditions: compound 48/80 0.1, mastoparan 5, icatibant 10, atracurium 25, ciprofloxacin 75 μg/ml
Protocol: LAD2 cells were sensitized for 20 hours with 0.5 μg/ml biotin-conjugated human IgE (Abbiotec). Cells were washed, resuspended in Hepes buffer (10 mM HEPES, 137 mM NaCl, 2.7 mM KCl, 0.38 mM Na2HPO4.7H2O, 5.6 mM glucose, 1.8 mM CaCl2.H2O, 1.3 mM MgSO4.7H2O, 0.4% BSA, pH 7.4) at 0.025×10^6 per well, and then stimulated with 0.1 μg/ml streptavidin (Life Technologies) or other agonists at the indicated concentrations for 30 minutes at 37° C./5% CO2. The β-hexosaminidase released into the supernatants and in cell lysates was quantified by hydrolysis of p-nitrophenyl N-acetyl-β-D-glucosamide (Sigma-Aldrich) in 0.1 M sodium citrate buffer (pH 4.5) for 90 minutes at 37° C. The percentage of β-hexosaminidase release was calculated as a percent of total content.
LAD2 cells were washed with medium, suspended at 0.5×10^6 cells per well, and transfected with 100 nm MrgprX2 siRNA and control siRNA in antibiotic-free StemPro medium using Lipofectamine 3000 (Life Technologies) according to the manufacturer's instruction at 37° C./5% CO2. At 48 hours, knockdown was confirmed by reverse-transcriptase PCR, and the cells were used for degranulation assays.

peritoneal mast cells = assay: Mouse peritoneal mast cell histamine release assay; format: cell-based; conditions: WT vs MrgprB2^MUT peritoneal mast cells
Protocol: Mast cells were purified as with the calcium imaging assay and allowed to recover for 2 hours in DMEM with 10% FBS and 25 ng/ml mouse stem cell factor in a 37° C. incubator with 5% CO2. Cells were then spun down, resuspended in CIB, counted, and plated at 300 cells/well in 75 μl CIB in 96-well plates coated with 20 μg/ml fibronectin (Sigma). They were allowed to adhere to the substrate for 45 minutes at 37° C. in atmospheric conditions (i.e. CO2 levels were not adjusted) before assay. […] After 5 minutes, 40 μl of supernatant was aspirated, diluted with 40 μl CIB and frozen at −80° C. until histamine levels were determined. Anti-IgE treatment was similar, except that cells were incubated for 30 minutes at 37° C. after anti-IgE was added before aspiration of supernatant. Histamine content was determined by using an HTRF histamine assay kit (Cisbio Assays) according to the manufacturer's instructions.

For `O=C(O)c1cn(C2CC2)c2cc(N3CCNCC3)c(F)cc2c1=O` [ciprofloxacin], the “change in body temperature” value (WT and MrgprB2^MUT mice) was “induced a rapid drop in body temperature”, the “β-hexosaminidase release in MrgprX2 siRNA vs control siRNA cells” value (LAD2 human mast cells) was “significantly reduced” and the “histamine release from WT peritoneal mast cells (MrgprB2^MUT released substantially less)” value (peritoneal mast cells) was “induced histamine release”.
